In series [1] the test system is Phytophthora infestans. It is filed as in vivo, Phytophthora infestans on tomato. Particulars: applied 24 h before inoculation, assessed 7 days after inoculation.
The subject of series [2] is Leptosphaeria nodorum (LEPTNO). As to the kind of experiment: In vitro fungitoxicity of hydrazones with and without copper towards Leptosphaeria nodorum (Example 26). It is filed as cell-based. Particulars: 72 h at 25° C.; for inhibition of growth at 0.05 µg/mL: Parastagonospora nodorum, 72 h, copper-minus medium, read-out: LEPTNO % Inhn. Minus Copper Observed.
Series [3] has as its system Phytophthora capsici. As to the kind of experiment: In vitro fungitoxicity of hydrazones with and without copper towards Phytophthora capsici (Example 28, Table 3). The settings on record: 0.050 μg/mL, 48 h; for % Inhn Plus copper Observed: copper-plus AS medium (CuCl2, 50 μM); for inhibition of growth at 0.05 µg/mL: Phytophthora capsici, copper-minus AS medium, read-out: % Inhn Minus copper Observed. It is filed as cell-based.

Series [4] relates to Ustilago maydis. As to the kind of experiment: In vitro fungitoxicity of hydrazones with and without copper towards Ustilago maydis (Example 29, Table 4). The settings on record: 1 μg/mL, 48 h; for % Inhn. Plus copper Observed: copper-plus medium (CuCl2, 10 μM); for inhibition of growth at 1 µg/mL: Mycosarcoma maydis, copper-minus medium, read-out: % Inhn. Minus copper Observed. It is filed as cell-based.

The subject of series [5] is Septoria tritici isolate USA-184. As to the kind of experiment: In vitro fungitoxicity of hydrazones with and without copper towards Septoria tritici (Example 30, Table 5). It is filed as cell-based. The settings on record: Zymoseptoria tritici, 0.05 μg/mL.
[6] abbreviates: hydrazone 50 ppm + 50 μM CuCl2.2H2O, tomato.
[7] abbreviates: compound 0.05 μg/mL, copper-plus medium (CuCl2.2H2O).
Where [8] appears, read: Colby formula, CuCl2, read-out: % Inhibition Plus copper Predicted.
Setting [9] is: copper-minus medium, 90 h, read-out: % Inhibition Minus copper Observed.
Setting [10] is: copper-plus medium CuCl2, 90 h, read-out: % Inhibition Plus copper Observed.
The mark [11] stands for this setting: hydrazone 50 ppm with 50 μM CuCl2.2H2O, tomato late blight.
Where [12] appears, read: test compound Concn. 0.05 μg/mL.
The mark [13] stands for this setting: copper-plus medium (CuCl2 10 μM), test compound Concn. 0.05 μg/mL.

Where two headings read alike, the source gives them in different places.

`COc1cc(Br)cc(/C=N/NC(=O)c2cccc(Br)c2)c1O` [Example 204]: the “TLB % Control” value in series [1] (setting [6]) came to 77.2%. For the same molecule, the inhibition of growth at 0.05 µg/mL is 7.3% in series [2] (compound 0.05 μg/mL) and 6% in series [3]. Also, the “LEPTNO % Inhn. Plus Copper Observed” value in series [2] (setting [7]) worked out at 95.5%. Further, in series [3], the “% Inhn Plus copper Observed” value was found to be 81.9%. The “% Inhn. Plus copper Observed” value in series [4] is reported as 77.0%. Besides, in series [4], the inhibition of growth at 1 µg/mL is 0%. The inhibition at 0.05 µg/mL was 0% in series [5] (setting [8]), 0% in series [5] (setting [9]) and 84.4% in series [5] (setting [10]).

For `O=C(N/N=C/c1cc(Cl)ccc1O)c1ccccc1O` [Example 177], the “TLB % Control” value in series [1] (setting [6]) stood at 91.0%. Besides, the inhibition of growth at 0.05 µg/mL came to 12.5% in series [2] (compound 0.05 μg/mL) and 0% in series [3]. Also, the “LEPTNO % Inhn. Plus Copper Observed” value in series [2] (setting [7]) is given as 95.2%. Besides, the “% Inhn Plus copper Observed” value in series [3] is on record as 92.4%. The “% Inhn. Plus copper Observed” value in series [4] stood at 33.3%. In addition, the inhibition of growth at 1 µg/mL in series [4] was determined as 0%. For the same molecule, the inhibition at 0.05 µg/mL in series [5] (setting [8]) was 0.2%; in series [5] (setting [9]), 0.2%; in series [5] (setting [10]), 95.2%.

In turn, `O=C(N/N=C/c1cc(C(F)(F)F)ccc1O)c1ccccc1O` [Example 443] gave a melting point of 277 to 281 °C. The “TLB % Control” value in series [1] (setting [11]) is recorded as 83.0%. Also, the inhibition of growth at 0.05 µg/mL in series [2] (setting [12]) is 14.6%. Also, in series [2] (setting [13]), the “LEPTNO % Inhn. Plus Copper Observed” value was 100.0%. In series [3], the “% Inhn Plus copper Observed” value is listed as 91.2% and the inhibition of growth at 0.05 µg/mL worked out at 2.4%. Moreover, in series [4], the “% Inhn. Plus copper Observed” value is listed as 35.3% and the inhibition of growth at 1 µg/mL amounted to 10.2%. Further, the inhibition at 0.05 µg/mL in series [5] (setting [8]) was 5.8%. For the same molecule, the inhibition at 0.05 µg/mL in series [5] (setting [9]) was 5.8%. Besides, the inhibition at 0.05 µg/mL in series [5] (setting [10]) stood at 92%.

`O=C(N/N=C/c1c(C(F)(F)F)ccc(Cl)c1O)c1ccccc1O` [Example 455] showed a melting point of 278 to 280 °C. In series [1] (setting [11]), the “TLB % Control” value was 100.0%. The inhibition of growth at 0.05 µg/mL in series [2] (setting [12]) amounted to 16.7%. For the same molecule, in series [2] (setting [13]), the “LEPTNO % Inhn. Plus Copper Observed” value was determined as 100.0%. Moreover, in series [3], the “% Inhn Plus copper Observed” value was determined as 30.8% and the inhibition of growth at 0.05 µg/mL is 0%. In series [4], the “% Inhn. Plus copper Observed” value is 96.0% and the inhibition of growth at 1 µg/mL was 0%. For the same molecule, the inhibition at 0.05 µg/mL in series [5] (setting [8]) is 27.5%. In series [5] (setting [9]), the inhibition at 0.05 µg/mL came out at 27.5%. Moreover, the inhibition at 0.05 µg/mL in series [5] (setting [10]) was determined as 92.4%.

In the case of `Cc1ccccc1C(=O)N/N=C/c1cc(Cl)cc(Br)c1O` [Example 162], in series [1] (setting [6]), the “TLB % Control” value came to 94.0%. In addition, the inhibition of growth at 0.05 µg/mL in series [2] (compound 0.05 μg/mL) was 0%; in series [3] it was 5.2%. In addition, the “LEPTNO % Inhn. Plus Copper Observed” value in series [2] (setting [7]) is 96.9%. For the same molecule, the “% Inhn Plus copper Observed” value in series [3] is 91.6%. For the same molecule, the “% Inhn. Plus copper Observed” value in series [4] worked out at 96.4%. In addition, the inhibition of growth at 1 µg/mL in series [4] stood at 8.8%. Also, the inhibition at 0.05 µg/mL is 36.3% in series [5] (setting [8]), 36.3% in series [5] (setting [9]) and 97.1% in series [5] (setting [10]).

Turning to `O=C(N/N=C/c1cc(Br)cc(Br)c1O)c1ccccc1` [Example 121], the “TLB % Control” value in series [1] (setting [6]) is given as 88.1%. Besides, the inhibition of growth at 0.05 µg/mL in series [2] (compound 0.05 μg/mL) and in series [3] was 0% throughout. Further, the “LEPTNO % Inhn. Plus Copper Observed” value in series [2] (setting [7]) stood at 98.3%. Moreover, the “% Inhn Plus copper Observed” value in series [3] stood at 90.4%. Besides, the “% Inhn. Plus copper Observed” value in series [4] is recorded as 96.9%. Moreover, the inhibition of growth at 1 µg/mL in series [4] was found to be 0%. Besides, the inhibition at 0.05 µg/mL in series [5] (setting [8]) is 9.7%; in series [5] (setting [9]) it was 9.7%; in series [5] (setting [10]) it was 96.5%.

For the molecule `O=C(N/N=C/c1cccc(Cl)c1O)c1cccc(Cl)c1` [Example 427], the melting point is 174 to 178 °C. For the same molecule, the “TLB % Control” value in series [1] (setting [11]) turned out to be 98.0%. Moreover, in series [2] (setting [12]), the inhibition of growth at 0.05 µg/mL came to 26.1%. In addition, the “LEPTNO % Inhn. Plus Copper Observed” value in series [2] (setting [13]) is reported as 97.9%. For the same molecule, in series [3], the “% Inhn Plus copper Observed” value was 88.6% and the inhibition of growth at 0.05 µg/mL worked out at 9.1%. Moreover, in series [4], the “% Inhn. Plus copper Observed” value is 89.3% and the inhibition of growth at 1 µg/mL stood at 34.3%. Besides, the inhibition at 0.05 µg/mL in series [5] (setting [8]) is 43.8%. Moreover, in series [5] (setting [9]), the inhibition at 0.05 µg/mL turned out to be 43.8%. Further, the inhibition at 0.05 µg/mL in series [5] (setting [10]) is 96.7%.

Consider `O=C(N/N=C/c1c(Cl)ccc(Cl)c1O)c1cccc(Cl)c1` [Example 369], for which the melting point was in the range of 232 to 234 °C. In series [1] (setting [11]), the “TLB % Control” value is reported as 98.0%. The inhibition of growth at 0.05 µg/mL in series [2] (setting [12]) amounted to 7%. In addition, the “LEPTNO % Inhn. Plus Copper Observed” value in series [2] (setting [13]) was found to be 95.5%. Further, in series [3], the “% Inhn Plus copper Observed” value came out at 44.5% and the inhibition of growth at 0.05 µg/mL stood at 0%. In series [4], the “% Inhn. Plus copper Observed” value is on record as 93.6% and the inhibition of growth at 1 µg/mL was 3.1%. In series [5] (setting [8]), the inhibition at 0.05 µg/mL is 9.3%. Also, in series [5] (setting [9]), the inhibition at 0.05 µg/mL came to 9.3%. The inhibition at 0.05 µg/mL in series [5] (setting [10]) turned out to be 93.2%.

As for `O=C(N/N=C/c1cc(C(F)(F)F)cc(Cl)c1O)c1ccccc1O` [Example 329], the melting point was in the range of 258 to 260 °C. Further, the “TLB % Control” value in series [1] (setting [11]) is on record as 99.0%. Further, in series [2] (setting [12]), the inhibition of growth at 0.05 µg/mL came out at 14%. The “LEPTNO % Inhn. Plus Copper Observed” value in series [2] (setting [13]) is 93.5%. Further, in series [4], the “% Inhn. Plus copper Observed” value turned out to be 41.8% and the inhibition of growth at 1 µg/mL came to 16.2%. Also, in series [5] (setting [8]), the inhibition at 0.05 µg/mL is 14.9%. For the same molecule, in series [5] (setting [9]), the inhibition at 0.05 µg/mL worked out at 14.9%. Further, the inhibition at 0.05 µg/mL in series [5] (setting [10]) was 55.1%.

The molecule `Cc1ccc(C(=O)N/N=C/c2ccc(Cl)c(Cl)c2O)c(O)c1` [Example 364] registered a melting point of 271 to 278 °C. For the same molecule, the “TLB % Control” value in series [1] (setting [11]) came to 97.0%. Besides, the inhibition of growth at 0.05 µg/mL in series [2] (setting [12]) is 8.4%. Further, the “LEPTNO % Inhn. Plus Copper Observed” value in series [2] (setting [13]) is 95.8%. Moreover, in series [3], the “% Inhn Plus copper Observed” value came out at 23.2% and the inhibition of growth at 0.05 µg/mL came out at 0%. Also, in series [4], the “% Inhn. Plus copper Observed” value came to 92.9% and the inhibition of growth at 1 µg/mL was 65.5%. The inhibition at 0.05 µg/mL in series [5] (setting [8]) was 22.4%. The inhibition at 0.05 µg/mL in series [5] (setting [9]) came to 22.4%. Further, the inhibition at 0.05 µg/mL in series [5] (setting [10]) turned out to be 93.7%.

The molecule `C/C(=N\NC(=O)c1ccc(Cl)cc1)c1cc(F)cc(F)c1O` [Example 578] yielded a melting point of 276 to 280 °C. Also, the “TLB % Control” value in series [1] (setting [11]) worked out at 100.0%. In addition, the inhibition of growth at 0.05 µg/mL in series [2] (setting [12]) was determined as 7.2%. Further, in series [2] (setting [13]), the “LEPTNO % Inhn. Plus Copper Observed” value is recorded as 98.0%. In series [3], the “% Inhn Plus copper Observed” value amounted to 90.4% and the inhibition of growth at 0.05 µg/mL worked out at 2.8%. Besides, in series [4], the “% Inhn. Plus copper Observed” value is reported as 93.8% and the inhibition of growth at 1 µg/mL worked out at 47.4%. The inhibition at 0.05 µg/mL in series [5] (setting [8]) is 26.7%. Moreover, the inhibition at 0.05 µg/mL in series [5] (setting [9]) was 26.7%. The inhibition at 0.05 µg/mL in series [5] (setting [10]) was determined as 90.7%.

`O=C(N/N=C/c1cccc(C(F)(F)F)c1O)c1ccccc1O` [Example 351]: the melting point lay in the range of 230 to 234 °C. Also, the “TLB % Control” value in series [1] (setting [11]) is recorded as 100.0%. Besides, the inhibition of growth at 0.05 µg/mL in series [2] (setting [12]) is 7.7%. The “LEPTNO % Inhn. Plus Copper Observed” value in series [2] (setting [13]) is 96.1%. In addition, in series [3], the “% Inhn Plus copper Observed” value is recorded as 87.9% and the inhibition of growth at 0.05 µg/mL came to 0%. For the same molecule, in series [4], the “% Inhn. Plus copper Observed” value came to 97.7% and the inhibition of growth at 1 µg/mL is 27.1%. In series [5] (setting [8]), the inhibition at 0.05 µg/mL was 44.4%. Moreover, the inhibition at 0.05 µg/mL in series [5] (setting [9]) is 44.4%. In addition, the inhibition at 0.05 µg/mL in series [5] (setting [10]) came out at 97.1%.

For orientation: inhibition means the share of the control response that was lost under treatment. The term melting point denotes the temperature, or range, at which the solid turns liquid.

The values above are taken from patent US20120010075A1 (priority 2009, published 2012).
